# Experimental data reported in BindingDB's records for PubMed 35063633 (Kumamoto University, 2022).
# Key:
# [1] = Inhibition of human constitutive proteasome subunit beta type-2 in human erythrocytes using fluorogenic substrate by […]
# [2] = Inhibition of human constitutive proteasome subunit beta type-1 in human erythrocytes using fluorogenic substrate by […]
IC50 [1] [µM],IC50 [2] [µM],SMILES
42,17,CCC(C)/C=C(\C)c1cc2c(cn1)C(=O)C1=C(N)C(=O)C(OC)=CC1=C2 (stereo unspecified)
> 50,> 50,CCC(C)/C=C(\C)c1cc2c(cn1)C(=O)c1c(cc(OC)c(O)c1O)C2=O (stereo unspecified)
> 50,19,CCC(C)/C=C(\C)C1=Cc2cc3c(c(O)c2CO1)C(=O)C(O)(CC(C)=O)C(OC)=C3 (stereo unspecified)
